In article PMC6576746, “Rational discovery of dual-indication multi-target PDE/Kinase inhibitor for precision anti-cancer therapy using structural systems pharmacology” (PLoS Computational Biology, 2019):

Tests used:
Test in all cases: cells
Parameters in all cases: species or system panel of human cancer cell lines; Eurofins OncoPanel proliferation; nuclei count by high-content fluorescence imaging, 10-point dose response
CCRFCEM = details: Homo sapiens, CCRF-CEM, 72 h, cell count, 3 days
Summary of the method: (§1)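 Ten half-log concentrations from 100 μM (0.1% DMSO max) applied one day post-seeding, 3-day exposure at 37°C; untreated time-zero plate for GI50. Readout is nuclear cell count by automated fluorescence imaging, giving EC50, IC50, GI50 and 0–10 activity area.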

JeKo-1 = details: Homo sapiens, JeKo-1, 72 h, cell count, 3 days
Summary of the method: as §1

A388 = details: 72 h, cell count, 3 days
Summary of the method: as §1

HCT-15 = details: Homo sapiens, HCT-15, 72 h, cell count, 3 days
Summary of the method: as §1

Mia PaCa-2 = details: Homo sapiens, MIA PaCa-2, 72 h, cell count, 3 days
Summary of the method: as §1

LS513 = details: Homo sapiens, LS-513, 72 h, cell count, 3 days
Summary of the method: as §1

OE19 = details: Homo sapiens, OE19, 72 h, cell count, 3 days
Summary of the method: as §1

A427 = details: Homo sapiens, A-427, 72 h, cell count, 3 days
Summary of the method: as §1

T24 = details: Homo sapiens, T-24, 72 h, cell count, 3 days
Summary of the method: as §1

MT-3 = details: MT-3, 72 h, cell count, 3 days
Summary of the method: as §1

Detroit 562 = details: Homo sapiens, Detroit 562, 72 h, cell count, 3 days
Summary of the method: as §1

MX-1 = details: Homo sapiens, MX1, 72 h, cell count, 3 days
Summary of the method: as §1

Jiyoye = details: Homo sapiens, JIYOYE, 72 h, cell count, 3 days
Summary of the method: as §1

BC-1 = details: Homo sapiens, BC1, 72 h, cell count, 3 days
Summary of the method: as §1

[1] = 50% of maximum possible response

C[C@@H]1CC(=O)NN=C1c1ccc(NN=C(C#N)C#N)cc1 [levosimendan]
IC50 (CCRFCEM; [1]): 35.5 µM | GI50 (CCRFCEM; corrected for time zero): 28.5 µM | EC50 (CCRFCEM; curve inflection point): 35.5 µM | IC50 (JeKo-1; [1]): 24.7 µM | GI50 (JeKo-1; corrected for time zero): 20.9 µM | EC50 (JeKo-1; curve inflection point): 24.6 µM | IC50 (A388; [1]): 61.1 µM | GI50 (A388; corrected for time zero): 48.4 µM | EC50 (A388; curve inflection point): 61.1 µM | IC50 (HCT-15; [1]): 32.1 µM | GI50 (HCT-15; corrected for time zero): 31 µM | EC50 (HCT-15; curve inflection point): 30.8 µM | IC50 (Mia PaCa-2; [1]): 11 µM | GI50 (Mia PaCa-2; corrected for time zero): 9.38 µM | EC50 (Mia PaCa-2; curve inflection point): 9.92 µM | IC50 (LS513; [1]): 17.2 µM | GI50 (LS513; corrected for time zero): 14.7 µM | EC50 (LS513; curve inflection point): 17.2 µM | IC50 (OE19; [1]): > 100 µM | GI50 (OE19; corrected for time zero): 96.8 µM | EC50 (OE19; curve inflection point): > 100 µM | IC50 (A427; [1]): 23.6 µM | GI50 (A427; corrected for time zero): 18.4 µM | EC50 (A427; curve inflection point): 23.6 µM | IC50 (T24; [1]): 6.95 µM | GI50 (T24; corrected for time zero): 6.6 µM | EC50 (T24; curve inflection point): 6.27 µM | IC50 (MT-3; [1]): > 100 µM | GI50 (MT-3; corrected for time zero): > 100 µM | EC50 (MT-3; curve inflection point): > 100 µM | IC50 (Detroit 562; [1]): 50.9 µM | GI50 (Detroit 562; corrected for time zero): 28.4 µM | EC50 (Detroit 562; curve inflection point): 50.9 µM | IC50 (MX-1; [1]): 40.4 µM | GI50 (MX-1; corrected for time zero): 37 µM | EC50 (MX-1; curve inflection point): 40.4 µM | IC50 (Jiyoye; [1]): 62.5 µM | GI50 (Jiyoye; corrected for time zero): 54.6 µM | EC50 (Jiyoye; curve inflection point): 62.5 µM | IC50 (BC-1; [1]): 18.9 µM | GI50 (BC-1; corrected for time zero): 14.6 µM | EC50 (BC-1; curve inflection point): 18.9 µM
